Read-outs that look alike come from different tables or passages of the source.
Assays:
[1] = in vivo; cited from earlier work
[2] = biological target: A2A receptor (Rattus norvegicus, UniProt P30543); details: for cAMP formation with NECA + antagonist: 100 nM NECA, ST14A cells
[3] = tested on: adenyl cyclase; assay: cAMP levels stimulated by forskolin in ST14A parental cells and huntingtin clones; type: cell-based, rat
[4] = tested on: G-proteins; assay: cAMP response induced by GTP-gammaS, a direct stimulator of G-proteins; type: cell-based, rat; details: 10 μM GTP-gammaS; parental clone
Source text: This concept is set down in the next page.

[5] = focal ischaemia model; cited from earlier work
[6] = tested on: N548wt cells; assay: Serum-deprivation induced cell death (mitochondrial function); details: antagonist 100 nM, 24 h serum-free medium
Source text: Cell death has been induced by shifting cultures to serum-free medium in the absence (black columns) or presence of the indicated A2A receptor antagonists. Data are the mean±S.E. of 6 experiments run in triplicate and are expressed as % of total cell death. *p<0.05 vs. control, Scheffe's test.
To assess the functional importance of the aberrant A2A receptor phenotype and its possible correlation with susceptibility to cell death, we have performed experiments where the influence of A2A receptor antagonists on the survival rate of ST14A cells have been specifically determined.

Sequence of A2A receptor (P30543 whole entry): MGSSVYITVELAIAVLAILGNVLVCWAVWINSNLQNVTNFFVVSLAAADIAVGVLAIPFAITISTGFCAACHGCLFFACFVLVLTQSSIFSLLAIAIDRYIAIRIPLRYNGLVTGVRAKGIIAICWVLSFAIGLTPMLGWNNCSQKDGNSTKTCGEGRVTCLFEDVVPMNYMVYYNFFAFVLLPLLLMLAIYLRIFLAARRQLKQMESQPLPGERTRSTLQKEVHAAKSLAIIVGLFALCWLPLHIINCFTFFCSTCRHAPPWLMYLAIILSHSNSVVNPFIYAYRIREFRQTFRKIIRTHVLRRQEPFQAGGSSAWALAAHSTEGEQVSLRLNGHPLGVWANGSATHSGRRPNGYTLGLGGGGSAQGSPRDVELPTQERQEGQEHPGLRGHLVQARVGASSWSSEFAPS

CCCCC#Cc1nc(N)c2ncn([C@@H]3O[C@H](C(=O)NCC)[C@@H](O)[C@H]3O)c2n1 [2-hexinyl-NECA]
convulsions induced by pentyl-tetrazole [1]: markedly reduces

Cn1c(=O)c2c(ncn2C)n(C)c1=O [Caffeine, caffeine]
cAMP formation with NECA + antagonist ([2]; antagonist 10 μM): 30 ± 3 pmole/10^5 cells | cAMP formation with NECA + antagonist ([2]; antagonist 100 μM): 27 ± 3 pmole/10^5 cells | cAMP formation with NECA + antagonist ([2]; antagonist 1 mM): 24 ± 3 pmole/10^5 cells | antagonism of the increases in cAMP induced by NECA ([2]; NECA 100 nM, parental clone and engineered clones): completely antagonizing

C=C[C@@]1(C)CC(=O)[C@]2(O)[C@@]3(C)[C@@H](O)CCC(C)(C)[C@@H]3[C@H](O)[C@H](OC(C)=O)[C@@]2(C)O1 [Forskolin]
cyclic AMP levels stimulated by forskolin ([3]; Forskolin 1 μM + Ro201724 0.5 mM, FL mu cells): 78 ± 7 pmoles/10^5 cells | cyclic AMP levels stimulated by forskolin ([3]; Forskolin 1 μM + Ro201724 0.5 mM, FL wt cells): 60 ± 6 pmoles/10^5 cells | cyclic AMP levels stimulated by forskolin ([3]; Forskolin 1 μM + Ro201724 0.5 mM, N548 wt cells): 63 ± 6 pmoles/10^5 cells | cyclic AMP levels stimulated by forskolin ([3]; Forskolin 1 μM + Ro201724 0.5 mM, ST14A cells): 58 ± 4 pmoles/10^5 cells | cyclic AMP levels stimulated by forskolin ([3]; Forskolin 1 μM, FL mu cells): 55 ± 5 pmoles/10^5 cells | cyclic AMP levels stimulated by forskolin ([3]; Forskolin 1 μM, FL wt cells): 54 ± 6 pmoles/10^5 cells | cyclic AMP levels stimulated by forskolin ([3]; Forskolin 1 μM, N548 wt cells): 47 ± 3 pmoles/10^5 cells | cyclic AMP levels stimulated by forskolin ([3]; Forskolin 1 μM, ST14A cells): 45 ± 5 pmoles/10^5 cells

Nc1nc2c(ncn2[C@@H]2O[C@H](COP(=O)(O)OP(=O)(O)OP(O)(O)=S)[C@@H](O)[C@H]2O)c(=O)[nH]1 [GTP-gammaS]
cAMP levels in the presence of GTP-gammaS [4]: 65±2 pmoles/10^5 cells

Nc1nc2c(cnn2CCc2ccccc2)c2nc(-c3ccco3)nn12 [SCH 58261, 5-amino-7-(2-phenylethyl)-2-(2-furyl)pyrazolo[4,3-e]-1,2,4-triazolo [1,5-c]pyrimidine]
cortical damage associated with occlusion of the middle cerebral artery [5]: significantly reducing | effect on extent of serum-deprivation induced cell death [6]: did not significantly affect

Nc1nc(NCCc2ccc(O)cc2)nc2nc(-c3ccco3)nn12 [ZM 241385, 4-[2-[[7-amino-2-(2-furyl)[1,2,4]triazolo[2,3-a][1,3,5]triazin-5-yl]amino]ethyl]phenol]
effect on extent of serum-deprivation induced cell death [6]: did not significantly affect
